Source: PubChem BioAssay AID192 (DTP/NCI, 2004)
“And” between values parts separate entries of the source, which are not always exact repeats. Equal entries are not always repeated. Inconclusive results and toxic doses are left out.

System: BDF1 mice, B16 melanoma ip, median survival T/C
Assay: NCI In Vivo Anticancer Drug Screen. Data for tumor model B16 Melanoma (intraperitoneal) in B6D2F1 (BDF1) mice
Details: endpoint: median survival time, higher = longer survival
In short: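 Antitumor activity is assessed in mice bearing a transplanted tumor, with survival or tumor size compared against vehicle-dosed controls and expressed as T/C.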

[1] = dose: 100.0 mg/kg/injection, schedule: Q01DX009 (ip), vehicle: Klucel (hydroxypropylcellulose) (HPC)

For `Nc1cc2[nH]cnc2c(=O)[nH]1`, the T/C (dose: 12.5 mg/kg/injection, schedule: Q01DX009 (ip), vehicle: suspension in saline) was 88 % of control, the T/C (dose: 18.8 mg/kg/injection, schedule: Q01DX009 (ip), vehicle: saline) was 102 % of control and the T/C (dose: 25.0 mg/kg/injection, schedule: Q01DX009 (ip), vehicle: saline) was 92 % of control. The T/C (dose: 25.0 mg/kg/injection, schedule: Q01DX009 (ip), vehicle: suspension in saline) was 95 % of control, the T/C (dose: 37.5 mg/kg/injection, schedule: Q01DX009 (ip), vehicle: saline) was 102 % of control and the T/C (dose: 50.0 mg/kg/injection, schedule: Q01DX009 (ip), vehicle: suspension in saline) was 94 % of control. The T/C (dose: 75.0 mg/kg/injection, schedule: Q01DX009 (ip), vehicle: saline) was 107 % of control, the T/C (dose: 100.0 mg/kg/injection, schedule: Q01DX009 (ip), vehicle: suspension in saline) was 95 % of control and the T/C (dose: 150.0 mg/kg/injection, schedule: Q01DX009 (ip), vehicle: saline) was 107 % of control. The T/C (dose: 200.0 mg/kg/injection, schedule: Q01DX009 (ip), vehicle: suspension in saline) was 106 % of control.
In the case of `O=C(CC(=O)CC(O)(C(F)(F)F)C(F)(F)F)CC(O)(C(F)(F)F)C(F)(F)F`, the T/C (dose: 0.05 mg/kg/injection, schedule: Q01DX009 (ip), vehicle: saline) is reported as 93 % of control, the T/C (dose: 0.1 mg/kg/injection, schedule: Q01DX009 (ip), vehicle: saline) is reported as 95 % of control and the T/C (dose: 0.2 mg/kg/injection, schedule: Q01DX009 (ip), vehicle: saline) is reported as 95 % of control. For the same compound, the T/C (dose: 0.63 mg/kg/injection, schedule: Q04DX003 (ip), vehicle: saline) was 116 % of control, the T/C (dose: 1.25 mg/kg/injection, schedule: Q04DX003 (ip), vehicle: saline) was 111 % of control and the T/C (dose: 2.5 mg/kg/injection, schedule: Q04DX003 (ip), vehicle: saline) was 105 % of control. The T/C (dose: 125.0 micrograms/kg/injection, schedule: Q01DX009 (ip), vehicle: saline with Tween-80) was 97 % of control.
`CC1CC(C)(C)C(C[NH-])C1[NH-].[Cl][Pt+2][Cl]` (configuration not stated) was tested, and the T/C (dose: 4.0 mg/kg/injection, schedule: Q01DX009 (ip), vehicle: other) was 153 % of control, the T/C (dose: 8.0 mg/kg/injection, schedule: Q01DX009 (ip), vehicle: other) was 150 % of control and the T/C (dose: 16.0 mg/kg/injection, schedule: Q01DX009 (ip), vehicle: other) was 112 % of control.
With `CC1=C(/C=C/C(C)=N/NC(N)=O)C(C)(C)CCC1` the T/C (dose: 50.0 mg/kg/injection, schedule: Q04DX003 (ip), vehicle: saline) was 112 % of control, the T/C (dose: 100.0 mg/kg/injection, schedule: Q04DX003 (ip), vehicle: saline) was 95 % of control and the T/C (dose: 200.0 mg/kg/injection, schedule: Q04DX003 (ip), vehicle: saline) was 102 % of control.
With `Nc1nc(=S)c2[nH]c(N=Nc3ccc(S(=O)(=O)O)cc3)nc2[nH]1` the T/C (dose: 6.25 mg/kg/injection, schedule: Q04DX003 (ip), vehicle: saline) was 107 % of control and the T/C (dose: 12.5 mg/kg/injection, schedule: Q04DX003 (ip), vehicle: saline) was 109 % of control.
For `O=[N+]([O-])c1ccc(N2CCC(CCCC3CCN(c4ccc([N+](=O)[O-])cc4[N+](=O)[O-])CC3)CC2)c([N+](=O)[O-])c1`, the T/C (dose: 25.0 mg/kg/injection, schedule: Q01DX009 (ip), vehicle: Klucel (hydroxypropylcellulose) (HPC)) was 106 % of control and the T/C [1] was 112 % of control.
With `CCOc1ccc(C2NC(=O)c3ccccc3N2)cc1` (configuration not stated) the T/C [1] was 105 % of control, the T/C (dose: 200.0 mg/kg/injection, schedule: Q01DX009 (ip), vehicle: Klucel (hydroxypropylcellulose) (HPC)) was 98 % of control and the T/C (dose: 400.0 mg/kg/injection, schedule: Q01DX009 (ip), vehicle: Klucel (hydroxypropylcellulose) (HPC)) was 94 % of control.
With `Cc1ccc(Cl)cc1N=Cc1ccccc1O` the T/C (dose: 100.0 mg/kg/injection, schedule: Q04DX003 (ip), vehicle: saline with Tween-80) was 104 % of control, the T/C (dose: 200.0 mg/kg/injection, schedule: Q04DX003 (ip), vehicle: saline with Tween-80) was 100 % of control and the T/C (dose: 400.0 mg/kg/injection, schedule: Q04DX003 (ip), vehicle: saline with Tween-80) was 104 % of control.
`CCC1CC2CC(c3cc4c(cc3OC)N(C)C3C(O)(C(=O)OC)C(OC(C)=O)C5(CC)C=CCN6CCC43C65)c3[nH]c4ccccc4c3CCN(C1)C2` (configuration not stated) was tested, and the T/C (dose: 0.25 mg/kg/injection, schedule: Q01DX009 (ip), vehicle: Klucel (hydroxypropylcellulose) (HPC)) was 108 % of control, the T/C (dose: 0.5 mg/kg/injection, schedule: Q01DX009 (ip), vehicle: Klucel (hydroxypropylcellulose) (HPC)) was 94 % of control and the T/C (dose: 1.0 mg/kg/injection, schedule: Q01DX009 (ip), vehicle: Klucel (hydroxypropylcellulose) (HPC)) was 104 % of control. For the same compound, the T/C (dose: 2.0 mg/kg/injection, schedule: Q01DX009 (ip), vehicle: Klucel (hydroxypropylcellulose) (HPC)) was 111 % of control, the T/C (dose: 4.0 mg/kg/injection, schedule: Q01DX009 (ip), vehicle: Klucel (hydroxypropylcellulose) (HPC)) was 108 % of control and the T/C (dose: 8.0 mg/kg/injection, schedule: Q01DX009 (ip), vehicle: Klucel (hydroxypropylcellulose) (HPC)) was 104 % of control.
In the case of `CCOC(=O)c1ccc(OC(=O)Nc2ccccc2)cc1`, the T/C (dose: 25.0 mg/kg/injection, schedule: Q01DX009 (ip), vehicle: saline with Tween-80) is reported as 97 % of control, the T/C (dose: 50.0 mg/kg/injection, schedule: Q01DX009 (ip), vehicle: saline with Tween-80) is reported as 97 % of control and the T/C (dose: 100.0 mg/kg/injection, schedule: Q01DX009 (ip), vehicle: saline with Tween-80) is reported as 93 % of control and 95 % of control.
